Drawing on patent publication US7148218B2 (priority 2001, dated 2006), this text covers IC50 for 3 molecules.

One may read the IC50 as the midpoint of a concentration-inhibition curve.

Holding throughout (assay): cells
For test [1], the system named is HCT 116 colon carcinoma. Format: cell-based. The following applies: 3-day exposure, average of two or more separate experiments, read-out: IC50 HCT116. The text has this: (§1) As indicated above, all of the compounds of formula I are anti-tumor agents and are, therefore, useful in inhibiting the growth of various lymphomas, sarcomas, carcinomas, myelomas, and leukemia cell lines. […] This assay was adapted from the 60 cell line assay used by the National Cancer Institute (NCI) with the following modifications: • 1) four cell lines representative for the important tumor types, viz., MIP 101 colon carcinoma, HCT 116 colon carcinoma, 1A9 ovarian carcinoma and 1A9PTX22 ovarian carcinoma, were utilized; and 2) a tetrazolium derivative, viz., MTT, was utilized to determine cell density.
(§2) The ADGMA compares the number of viable cells following a 3-day exposure to a test compound relative to the number of cells present at the time the test compound was added. […] The absorbance at 540 nm (A540) of the formazan derivative is proportional to the number of viable cells. The IC50 for a test compound is the concentration of compound required to reduce the final cell number to 50% of the final control cell number. If cell proliferation is inhibited, the assay further defines compounds as cytostatic (cell number after 3-day compound incubation >cell number at time of compound addition) or cytotoxic (cell number after 3-day compound incubation <cell number at time of compound addition).
The HCT 116 colon carcinoma cell line was obtained from the American Type Culture Collection (ATCC, Rockville, Md.). The MIP 101 colon carcinoma cell line was obtained from Dr. Robert Kramer (Bristol Meyers Squibb) and was previously described (Niles R M, Wilhelm S A, Steele G D JR, Burke B, Christensen T, Dexter D, O'Brien M J, Thomas P, Zamcheck N. Isolation and characterization of an undifferentiated human colon carcinoma cell line (MIP-101). Cancer Invest. 1987;5(6):545–52.). […]
Cells are trypsinized and counted using a hemacytometer to determine cell concentrations. […] Initial cell densities, assayed one day after plating, are roughly 0.10–0.20 A540 absorbance units greater than the media blank. […]

The test system of test [2] is 1A9PTX22 ovarian carcinoma. Type of test: cell-based, human. The following applies: 3-day exposure, paclitaxel-resistant subline, average of two or more separate experiments.
Source text: as §1, §2
(§3) The HCT 116 colon carcinoma cell line was obtained from the American Type Culture Collection (ATCC, Rockville, Md.). The MIP 101 colon carcinoma cell line was obtained from Dr. Robert Kramer (Bristol Meyers Squibb) and was previously described (Niles R M, Wilhelm S A, Steele G D JR, Burke B, Christensen T, Dexter D, O'Brien M J, Thomas P, Zamcheck N. Isolation and characterization of an undifferentiated human colon carcinoma cell line (MIP-101). Cancer Invest. 1987;5(6):545–52.). The 1A9 and the 1A9PTX22 ovarian tumor cell lines were obtained from Dr. Tito Fojo, Medicine Branch, Division of Clinical Sciences, National Cancer Institute, National Institutes of Health, Bethesda, Md. 20892. The 1A9 is a clone of the ovarian carcinoma cell line, A2780 (Giannakakou P, Sackett, D L, Kang Y-K, Zhan Z, Buters J T M, Fojo T, Poruchynsky MS. Paclitaxel-resistant human ovarian cancer cells have mutant δ-tubulins that impaired paclitaxel-driven polymerization. J. Biol. Chem. 1997, 272(4):17118–17125). The 1A9PTX22 subline was isolated as an individual clone from the 1A9 cell line in a single step selection by exposure to 5 ng/mL paclitaxel in the presence of 5 μg/mL of verapamil. All cell lines were used between passages 4–20 following thawing. MIP-101 colon carcinoma, HCT 116 colon carcinoma, 1A9 ovarian carcinoma and 1A9PTX22 ovarian carcinoma cell lines are maintained and plated in RPMI 1640 medium containing 10% fetal bovine serum.
(§4) Cells are trypsinized and counted using a hemacytometer to determine cell concentrations. Cells were then plated in their respective maintenance media (200 μL/well) in 96-well plates at the following concentrations: MIP-101, 2000 cells/well; HCT 116, 2000 cells/well; 1A9, 10000 cells/well; and 1A9PTX22, 10000 cells/well. […] Initial cell densities, assayed one day after plating, are roughly 0.10–0.20 A540 absorbance units greater than the media blank. Ninety-six well plates were seeded on day 0 and the test compounds are added on day 1. A “time 0” plate was created that received media only in row A and one cell line/row in rows B–E. The “time 0” plate was processed 24 hours after plating (at the time when drugs were added to experimental plates), as follows: 5 micoliters of the MTT stock solution (0.5 mg/mL in PBS) was added to each well and then incubated for three hours at 37° C., 5% CO2, in a humidified environment. Media was then carefully and completely removed. Plates were allowed to dry in the dark. DMSO (dimethylsulfoxide) was added to each well (100 μL/well) and plates were placed on an orbital shaker for 2 hours. […]

In test [3] the test system is 1A9 ovarian carcinoma. Format: cell-based, human. The following applies: 3-day exposure, average of two or more separate experiments.
Source text: as §1, §2, §3, §4

Test [4] concerns MIP 101 colon carcinoma. Format: cell-based, human. To be noted: 3-day exposure, average of two or more separate experiments, read-out: IC50 MIP101.
Source text: as §1, §2, §3, §4

Like-named read-outs stand apart in the source and are kept apart here.

As for `C=C/C=C\[C@H](C)C(OC(N)=O)C(C)C(O)C(C)C(=O)N(C)C[C@H](C)[C@@H](O)[C@@H](C)/C=C\C(O)C[C@@H]1OC(=O)[C@H](C)C(O)C1C` (stereo partly drawn) [Ex. 2, (2R,3S,4R,5S,7S,8Z)-13-[[(2R,3S,4S,5S,6S,7Z)-5-[(aminocarbonyl)oxy]-3-hydroxy-2,4,6-trimethyl-1-oxo-7,9-decadienyl]methylamino]-3,5,7,11-tetrahydroxy-2,4,10,12-tetramethyl-8-tridecenoic acid δ-lactone], the IC50 in test [1] (Homo sapiens, HCT-116, 72 h) was 13000 nM; in test [2] (Homo sapiens, 1A9/ptx-22, 72 h), 6000 nM; in test [3] (Homo sapiens, 72 h) it was 4000 nM; in test [4] (Homo sapiens, 72 h), 20000 nM.
Taken in the same sequence, the figures for `CC(=O)O[C@H]1C(=O)[C@@]2(C)[C@H]([C@H](OC(=O)c3ccccc3)[C@]3(O)C[C@H](OC(=O)[C@H](O)[C@@H](NC(=O)c4ccccc4)c4ccccc4)C(C)=C1C3(C)C)[C@]1(OC(C)=O)CO[C@@H]1C[C@@H]2O` [paclitaxel, reference compound] were 0.3 nM, 1 nM, 47 nM and 200 nM.
Regarding “(2R,3S,4S,5S,7S,8Z,10S,11S,12S,13Z,16S,17R,18S,19S,20S)-19-[(aminocarbonyl)oxy]-3,5,7,11,17-pentahydroxy-2,3,4,10,12,14,16,18,20-nonamethyl-21-(phenylmethoxy)-8,13-heneicosadienoic acid δ-lactone [Ex. 1]”, the IC50 was found to be 200 nM in test [1], 180 nM in test [2], 30 nM in test [3] and 3800 nM in test [4].
